For one data set, the species on record is Homo sapiens. Kind of data set: Selectivity ratio of EC50 for human S1P3 receptor to EC50 for human S1P1 receptor.
The target in data set [1] is Sphingosine 1-phosphate receptor 3 (Homo sapiens, UniProt Q99500). Nature of the data set: Agonist activity at human S1P3 receptor expressed in CHOK1 cell membranes by [35S]-GTPgammaS binding assay. For orientation: Binding of GTPγS marks nucleotide exchange on a G protein.
The test system of data set [2] is Serum. Kind of data set: Drug metabolism in human serum assessed as monophosphate formation by measuring parent compound half life at 3 mg by 31P NMR method. It is filed as ADME, cell-free.
The nature of data set [3]: Chemical stability in aqueous buffer at pH 8 at 3 mg measured every 12 mins over 13 hrs by 31P NMR method. It is filed as physicochemical. Conditions: pH 8, 13 h.
Data set [4] is described as follows: Chemical stability in aqueous buffer at pH 1.5 at 3 mg measured every 12 mins over 13 hrs by 31P NMR method. Format: physicochemical. The settings on record: pH 1.5, 13 h.
Data set [5] is described as follows: Drug metabolism assessed as carboxypeptidase Y (unknown origin)-mediated monophosphate formation at 3 mg measured every day over 2 weeks by mass spectroscopic method. It is filed as ADME. Conditions: human, 336 h.
For data set [6], the system named is Serum. Kind of data set: Drug metabolism in human serum assessed as monophosphate formation at 3 mg after 12 hrs by mass spectroscopic method. Format: ADME, cell-free.
Data set [7] is described as follows: Drug metabolism in mouse J1 cell derived neurons assessed as monophosphate formation at 3 mg after 4 days by mass spectroscopic method. Conditions: j1 cell-derived neuron, 96 h. It is filed as ADME, cell-based.

The values below come from ChEMBL document CHEMBL3997840, “Kinase-independent phosphoramidate S1P1 receptor agonist benzyl ether derivatives” (Bioorg Med Chem Lett, 2017).

Each structure is given as a SMILES string.

Sphingosine 1-phosphate receptor 3, sequence (Q99500 whole entry): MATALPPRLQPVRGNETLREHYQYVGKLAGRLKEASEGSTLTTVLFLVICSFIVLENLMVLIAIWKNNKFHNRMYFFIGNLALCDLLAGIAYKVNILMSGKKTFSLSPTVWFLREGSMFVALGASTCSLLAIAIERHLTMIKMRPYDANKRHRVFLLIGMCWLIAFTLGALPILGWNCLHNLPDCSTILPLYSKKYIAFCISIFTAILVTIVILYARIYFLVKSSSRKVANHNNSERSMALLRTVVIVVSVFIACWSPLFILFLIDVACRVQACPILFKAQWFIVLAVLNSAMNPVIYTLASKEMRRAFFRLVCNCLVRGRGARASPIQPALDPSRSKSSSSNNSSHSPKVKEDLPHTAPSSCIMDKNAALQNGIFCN

As for `Cc1ccc(CCCC(=O)c2ccc(COC[C@@](C)(N)COP(=O)(O)O)cc2)cc1`, the Ratio EC50 in the data set listed under Homo sapiens amounted to 29.

The term EC50 denotes the concentration that produces a half-maximal response. Higher therefore signals a less potent agent. With `Cc1ccc(CCCC(=O)c2cc(C)c(COC[C@@](C)(N)COP(=O)(O)O)cc2C)cc1`, the EC50 in data set [1] is more than 20 µM. Also, the Ratio EC50 in the data set listed under Homo sapiens was more than 3080.

With `Cc1ccc(CCCC(=O)c2cc(C)c(COC[C@@](C)(N)COP(=O)(N[C@@H](C)C(=O)OC(C)C)Oc3ccccc3)cc2C)cc1` (some centres undefined), in the data set with Serum [2], the t1/2 turned out to be 14 h.

Turning to `Cc1ccc(CCCC(=O)c2ccc(COC[C@@](C)(N)COP(=O)(N[C@@H](C)C(=O)OC(C)C)Oc3ccccc3)cc2)cc1` (some centres undefined), in the data set with Serum [2], the t1/2 was found to be 14 h.

`Cc1ccc(CCCC(=O)c2ccc(COC[C@@](C)(N)COP(=O)(N[C@@H](C)C(=O)OCc3ccccc3)Oc3ccccc3)cc2)cc1` (some centres undefined): in the data set with Serum [2], the t1/2 stood at 14 h.

On to `COC(=O)[C@H](C)NP(=O)(OC[C@](C)(N)COCc1ccc(C(=O)CCCc2ccc(C)cc2)cc1)Oc1ccccc1` (some centres undefined), for which the Stability entry in data set [3] and in data set [4] was “Stable” each time. Moreover, the t1/2 in the data set with Serum [2] came to 14 h. Further, the Drug metabolism result (in data set [5]; in the data set with Serum [6]; in data set [7]) was “Metabolite_Detected” in each case.

As to `Cc1ccc(CCCC(=O)c2cc(C)c(COC[C@@](C)(N)COP(=O)(N[C@@H](C)C(=O)OCc3ccccc3)Oc3ccccc3)cc2C)cc1` (some centres undefined), the t1/2 in the data set on Serum [2] came to 14 h.

For `COC(=O)[C@H](C)NP(=O)(OC[C@](C)(N)COCc1cc(C)c(C(=O)CCCc2ccc(C)cc2)cc1C)Oc1ccccc1` (some centres undefined), the t1/2 in the data set with Serum [2] was 14 h.
